Measured values taken from US5444049A, “Peptide compounds derived from boronic acid” (Adir et Compagnie, priority 1993, dated 1995).
Read-outs that look alike come from different tables or passages of the source.

What was measured:
purified human urokinase = molecular target: T1, purified human urokinase (Homo sapiens, UniProt P00749); assay: Inhibition of urokinase; format: biochemical; conditions: peptidyl para-nitroanilide substrate
T1 construct: purchased Sigma
Method: (§1) To evaluate in vitro the selectivity of these products with respect to different serine proteases of fibrinolysis and of coagulation, the same protocol was applied to purified human plasmin (2 nM, Stago), to purified human activated protein C (2 nM, Stago), to purified human activated factor X (2 nM, Stago), to tissue plasminogen activator (2 nM, Calbiochem), to purified human urokinase (2 nM, Sigma) and to purified human plasma kallikrein (2 nM, Calbiochem), using different peptidyl para-nitroanilides as substrate: <Glu-Phe-Lys-pNA (0.50 mM, S 2403, Kabi) for plasmin, N-Cbo-Arg-Gly-Arg-pNA (0.38 mM, S 2765, Kabi) for factor Xa, <Glu-Pro-Arg-pNa (0.52 mM, S 2366, Kabi) for activated protein C, H-D-Pro-Phe-Arg-pNa (0.45 mM, S 2302, Kabi) for kallikrein, H-D-Ile-Pro-Arg-pNA (0.48 mM, S 2288, Kabi), <Glu-Gly-Arg-pNA (0.56 mM, S 2444, Kabi).
(§2) Inhibitors, enzymes and substrates are diluted in the same buffer ([…] buffer, pH 7.4, containing 0.12M sodium chloride and 0.05% of bovine serum albumin), and then distributed in a polystyrene microplate in a volume of […].
(§3) The fibrin formed by thrombin or by the para-nitroaniline liberated by the action of the serine protease is measured spectrophotometrically at 405 nm after 15 to 30 minutes of reaction at 20° C.

dogs [1] = assay: Anticoagulant activity p.o. in dogs, thrombin time; format: in vivo, dog; conditions: 5 mg/kg orally
Method: (§4) The products were administered orally to dogs.2 hours and 4 hours after the treatment, and blood was withdrawn via the intravenous route. The plasma is prepared, platelets counted and the thrombin time test is carried out.

[2] = molecular target: T2, purified human activated factor X (Homo sapiens, UniProt P00742); assay: Inhibition of activated factor X; format: biochemical; conditions: substrate S 2765
T2 construct: purchased Stago
T2 sequence (P00742 235-488 limits assumed): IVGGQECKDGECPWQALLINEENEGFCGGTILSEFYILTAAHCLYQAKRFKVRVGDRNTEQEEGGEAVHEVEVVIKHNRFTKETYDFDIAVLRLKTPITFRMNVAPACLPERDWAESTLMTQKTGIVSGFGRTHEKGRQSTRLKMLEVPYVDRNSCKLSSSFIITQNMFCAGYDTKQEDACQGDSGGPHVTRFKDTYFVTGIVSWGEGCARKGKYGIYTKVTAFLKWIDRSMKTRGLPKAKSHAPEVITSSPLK
T2 sequence (P00742 41-179 limits assumed): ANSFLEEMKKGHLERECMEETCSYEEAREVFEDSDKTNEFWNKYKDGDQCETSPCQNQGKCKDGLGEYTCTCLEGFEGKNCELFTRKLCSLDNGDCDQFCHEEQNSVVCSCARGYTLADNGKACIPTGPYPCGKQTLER
Method: as §1, §2, §3

dogs [3] = assay: Thrombopenia p.o. in dogs, platelet count; format: in vivo, dog; conditions: 5 mg/kg orally
Method: as §4

[4] = molecular target: T3, purified human activated protein C (Homo sapiens, UniProt P04070); assay: Inhibition of activated protein C; format: biochemical; conditions: substrate S 2366
T3 construct: purchased Stago
T3 sequence (P04070 212-461 limits assumed): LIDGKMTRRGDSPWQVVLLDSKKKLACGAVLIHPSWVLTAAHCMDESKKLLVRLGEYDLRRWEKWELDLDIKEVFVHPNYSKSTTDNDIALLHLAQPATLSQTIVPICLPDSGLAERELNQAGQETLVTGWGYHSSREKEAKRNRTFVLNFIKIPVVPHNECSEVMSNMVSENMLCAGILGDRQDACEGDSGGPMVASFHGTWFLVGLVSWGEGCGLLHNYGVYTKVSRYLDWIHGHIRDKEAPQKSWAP
T3 sequence (P04070 43-197 limits assumed): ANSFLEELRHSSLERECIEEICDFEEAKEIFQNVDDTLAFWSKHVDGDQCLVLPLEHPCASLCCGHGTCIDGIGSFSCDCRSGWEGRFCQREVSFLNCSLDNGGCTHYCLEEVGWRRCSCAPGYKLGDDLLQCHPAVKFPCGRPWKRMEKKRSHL
Method: as §1, §2, §3

OFA rats [5] = assay: Anticoagulant activity ex vivo, intravenous administration, activated cephalin time; format: in vivo, rat; conditions: 0.5 mg/kg i.v., 15.5 min
OFA rats [6] = assay: as above; format: in vivo, rat; conditions: 0.5 mg/kg i.v.
Method: OFA rats, fasted or otherwise, are anesthetized with pentobarbital (60 mg/kg i.p.). The carotid artery and the jugular vein are exposed and catheterized. The catheters are flushed with citrated (1/40) physiological solution. After installation of the catheters, a sample of 1.5 cm^3 of arterial blood is withdrawn into 0.109M citrate (1/9).
30 minutes later, the test product is administered i.v. in a volume of 1 ml.
Arterial blood samples (1.5 ml) are then withdrawn at 1 minute 30 sec and 5, 15, 30 and 60 minutes.
As each sample is withdrawn, 1.5 ml of citrated physiological solution are reinjected into the animal via the carotid.
The blood tubes are centrifuged for 15 minutes at 3000 g (preparation of plasma). 100 μl of plasma are incubated with 100 gl of activated cephalin. The time of onset of the coagulation phenomenon is measured after adding 100 μl of calcium.
The compounds of the invention, tested at a dose of 0.5 mg/kg, increase the activated cephalin time (ACT) in a dose-dependent manner. […] The increase in ACT noted with the compounds of the invention is still significant 60 minutes after their administration. The results are reproduced in the following table, and show the factors by which the coagulation time is increased.

[7] = system: thrombin time of human platelet-poor plasma; assay: Anticoagulant activity: thrombin time in human plasma; format: biochemical; conditions: for Man CTT2 (concentration which multiplies the thrombin time by 2): human plasma, 2 minutes at 37° C.
Method: (§5) In the presence of a standard quantity of thrombin, a normal plasma coagulates in a defined and constant time, termed the thrombin time (TT). Any prolongation of this time reflects an abnormality of fibrin formation (coagulation).
(§6) Sprague-Dawley rats are anesthetized with pentobarbital sodium (60 mg/kg i.p.), the carotid artery is catheterized and blood samples are taken into trisodium citrate solution (0.109M). A platelet-poor plasma is obtained by centrifugation of the blood samples (3000 g, 15 minutes). Samples of venous blood are also taken from humans at the bend of the arm. Anticoagulation of the samples and preparation of platelet-poor plasma are identical to those carried out with rat blood.
(§7) The thrombin time is obtained with Prest thrombin reagent and determined automatically using a coagulometer.
(§8) The antagonist or the solvent (10 μl) is added to the plasma (90 μl) and then incubated for 2 minutes at 37° C. 100 µl of thrombin are added as the chronometer is started.
(§9) Under these conditions, the TT values obtained in the control plasma are of the order of 30 seconds in rats and 20 seconds in humans. The activity of an antagonist is evaluated by its capacity to prolong this thrombin time relative to the control.
(§10) Under these conditions, the compounds of the invention permit a prolongation of the thrombin time of 50-fold and more. The effect of the inhibitors is measured, and the concentration which multiplies the thrombin time by 2 (CTT2) is determined.

human thrombin = molecular target: T4, human thrombin (Homo sapiens, UniProt P00734); assay: Inhibition of human thrombin (fibrinogen or S2238 substrate); format: biochemical; conditions: for IC50: 20° C.; for selectivity with respect to the serine proteases of coagulation and of fibrinolysis compared with DUP 714: thrombin versus other serine proteases
T4 construct: human thrombin (Sigma, specific activity 3230 NIHU/mg); purchased Sigma
Method: To evaluate in vitro the inhibitory activity of the boro-arginine products with respect to human thrombin (Sigma, specific activity 3230 NIHU/mg), purified human fibrinogen ([…], Stago) (Fg) or the chromogenic substrate H-D-Phe-Pip-Arg-pNa ([…], S2238, Kabi) was added to a given quantity of thrombin (0.7 or 2 nM) incubated beforehand with or without the inhibitor under test (20° C., 10 minutes).
as §2, §3

[8] = molecular target: T5, purified human plasma kallikrein (Homo sapiens, UniProt P03952); assay: Inhibition of plasma kallikrein; format: biochemical; conditions: substrate S 2302; read-out: IC50 Kalli
T5 construct: to purified human plasma kallikrein (2 nM, Calbiochem); purchased Calbiochem
T5 sequence (P03952 391-638 limits assumed): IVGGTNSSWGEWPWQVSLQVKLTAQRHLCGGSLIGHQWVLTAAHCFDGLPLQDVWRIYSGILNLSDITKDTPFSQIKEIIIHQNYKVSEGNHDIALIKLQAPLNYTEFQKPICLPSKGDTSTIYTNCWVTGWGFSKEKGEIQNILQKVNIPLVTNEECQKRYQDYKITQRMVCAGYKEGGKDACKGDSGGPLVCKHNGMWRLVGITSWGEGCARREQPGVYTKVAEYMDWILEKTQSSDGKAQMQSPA
T5 sequence (P03952 20-390 limits assumed): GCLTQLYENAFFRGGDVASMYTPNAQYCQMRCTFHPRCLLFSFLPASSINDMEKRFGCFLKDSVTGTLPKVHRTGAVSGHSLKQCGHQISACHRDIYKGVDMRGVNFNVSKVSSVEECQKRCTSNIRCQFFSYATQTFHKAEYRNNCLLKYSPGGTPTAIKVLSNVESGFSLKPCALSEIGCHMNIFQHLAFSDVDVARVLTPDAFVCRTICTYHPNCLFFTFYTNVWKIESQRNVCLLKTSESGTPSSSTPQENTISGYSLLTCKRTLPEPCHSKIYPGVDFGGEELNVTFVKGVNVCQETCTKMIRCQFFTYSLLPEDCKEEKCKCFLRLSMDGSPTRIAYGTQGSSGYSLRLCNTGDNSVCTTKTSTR
Method: as §1, §2, §3

[9] = molecular target: T6, tissue plasminogen activator (Homo sapiens, UniProt P00750); assay: Inhibition of tissue plasminogen activator; format: biochemical; conditions: peptidyl para-nitroanilide substrate
T6 construct: purchased Calbiochem
T6 sequence (P00750 36-562): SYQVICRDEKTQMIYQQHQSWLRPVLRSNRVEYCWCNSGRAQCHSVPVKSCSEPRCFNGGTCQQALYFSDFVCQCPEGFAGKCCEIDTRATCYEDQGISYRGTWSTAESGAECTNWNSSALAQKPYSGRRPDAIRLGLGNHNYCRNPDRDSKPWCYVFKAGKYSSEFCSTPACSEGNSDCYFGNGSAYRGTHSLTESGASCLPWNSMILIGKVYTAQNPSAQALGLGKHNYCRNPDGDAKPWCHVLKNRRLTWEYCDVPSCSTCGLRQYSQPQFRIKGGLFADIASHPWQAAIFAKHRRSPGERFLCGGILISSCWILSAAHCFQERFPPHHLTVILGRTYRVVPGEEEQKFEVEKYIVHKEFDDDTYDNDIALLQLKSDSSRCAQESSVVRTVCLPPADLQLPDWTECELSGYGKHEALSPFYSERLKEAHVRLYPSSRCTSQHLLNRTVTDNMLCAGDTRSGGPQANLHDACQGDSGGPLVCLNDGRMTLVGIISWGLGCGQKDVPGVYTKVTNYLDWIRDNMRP
Method: as §1, §2, §3

purified human plasmin = molecular target: T7, purified human plasmin (Homo sapiens, UniProt P00747); assay: Inhibition of plasmin; format: biochemical; conditions: substrate S 2403
T7 construct: purified human plasmin (2 nM, Stago); purchased Stago
T7 sequence (P00747 581-810 limits assumed): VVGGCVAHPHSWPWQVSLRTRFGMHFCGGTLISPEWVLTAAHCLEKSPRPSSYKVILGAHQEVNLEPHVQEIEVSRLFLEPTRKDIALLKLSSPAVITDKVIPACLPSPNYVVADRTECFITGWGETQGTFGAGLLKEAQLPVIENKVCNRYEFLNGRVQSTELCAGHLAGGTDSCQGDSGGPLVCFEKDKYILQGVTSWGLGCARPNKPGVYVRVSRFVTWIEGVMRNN
T7 sequence (P00747 97-580 limits assumed): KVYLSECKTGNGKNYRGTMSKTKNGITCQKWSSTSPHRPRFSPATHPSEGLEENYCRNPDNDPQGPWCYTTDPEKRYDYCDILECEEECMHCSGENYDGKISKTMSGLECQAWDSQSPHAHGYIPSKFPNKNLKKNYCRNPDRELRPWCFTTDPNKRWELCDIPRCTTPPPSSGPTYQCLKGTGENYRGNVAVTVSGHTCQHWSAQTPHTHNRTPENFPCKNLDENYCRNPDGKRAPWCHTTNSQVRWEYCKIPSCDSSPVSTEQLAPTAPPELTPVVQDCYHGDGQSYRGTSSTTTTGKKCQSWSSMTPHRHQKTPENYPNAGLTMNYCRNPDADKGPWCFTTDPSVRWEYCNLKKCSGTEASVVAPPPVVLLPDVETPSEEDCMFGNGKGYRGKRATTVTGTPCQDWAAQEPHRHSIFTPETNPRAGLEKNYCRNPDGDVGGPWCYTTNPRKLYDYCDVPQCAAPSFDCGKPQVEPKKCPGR
Method: as §1, §2, §3

[10] = system: thrombin time of rat platelet-poor plasma; assay: Anticoagulant activity: thrombin time in rat plasma; format: biochemical; conditions: rat plasma, 2 minutes at 37° C.
Method: as §5, §6, §7, §8, §9, §10

OFA rats [11] = assay: Anticoagulant activity ex vivo, oral administration (conscious rats), thrombin time; format: in vivo, rat; conditions: 10 mg/kg orally
Method: Fasted OFA rats are anesthetized with ether. The cordal artery is exposed and catheterized. The catheter is flushed with citrated (1/40) physiological solution. After installation of the catheter, the animal is placed in a restraining cage and 1.5 cm^3 of arterial blood are withdrawn into 0.109M citrate (1/9).
1 hour after the animal has awoken, the test products are administered orally at a single dose of 10 mg/kg.
Arterial blood samples (1.5 ml) are then withdrawn at 30 minutes, 60 minutes and 2 hours.
As each sample is withdrawn, 1.5 ml of physio-logical solution are reinjected into the animals.
The blood tubes are centrifuged for 15 minutes at 3000 g for preparation of the plasma. The time of onset of the coagulation phenomenon is measured after adding Prest thrombin.
The results are reproduced in the following table, and show the factors by which the thrombin time is increased.

[12] = chromogenic substrate S2238, read-out: IC50 Thrombin S2238
[13] = substrate purified human fibrinogen, read-out: IC50 Thrombin Fg

Row | IC50 (purified human urokinase) [nM] | IC50 [2] [nM] | Change in platelet count (% of control) (dogs [3]; 2 hr) [%] | Change in platelet count (% of control) (dogs [3]; 4 hr) | IC50 [4] [nM] | IC50 (human thrombin; [12]) [nM] | IC50 (human thrombin; [13]) [nM] | selectivity with respect to the serine proteases of coagulation and of fibrinolysis compared with DUP 714 (human thrombin) | IC50 [8] [nM] | IC50 [9] [nM] | IC50 (purified human plasmin) [nM] | SMILES | Increase factor TT (dogs [1]; 2 hr) | Increase factor TT (dogs [1]; 4 hr) | factor by which the coagulation time (ACT) is increased (OFA rats [5]) | factor by which the coagulation time (ACT) is increased (OFA rats [6]; 5 min) | factor by which the coagulation time (ACT) is increased (OFA rats [6]; 15 min) | factor by which the coagulation time (ACT) is increased (OFA rats [6]; 30 min) | factor by which the coagulation time (ACT) is increased (OFA rats [6]; 60 min) | Man CTT2 (concentration which multiplies the thrombin time by 2) [7] [µM] | further results
1 | 3180 | 1760 | -4 | -1% | 149 | 2.5 | 0.79 | greater selectivity | 104 | 38 | 735 | CC(=O)NC(Cc1ccccc1)C(=O)N(CC(=O)N[C@@H](CCCNC(=N)N)B(O)O)C1CCCC1.CC(=O)O (mixture of isomers) [Ex. 27, 1-(R)-{[Ac-(RS)Phe-(N-cyclopentyl)Gly]amino}-4-guanidinobutylboronic acid acetate] | 11 | 3 | 5 | 2.3 | 1.7 | 1.5 | 1.3 | 0.20 | –
2 | – | – | – | – | – | – | – | – | – | – | – | CC(=O)NC(Cc1ccccc1)C(=O)N1C(C(=O)NC(CCCNC(=N)N)B(O)O)CC2CCCCC21.CC(=O)O (mixture of isomers) [Ex. 3, 1-(R)-[(Ac-(RS)Phe-Phi)amino]-4-guanidinobutylboronic acid acetate] | – | – | 7.3 | 4.7 | 3.6 | 2.6 | 2.0 | 0.07 | Rat CTT2 (concentration which multiplies the thrombin time by 2) [10]: 0.23 µM; factor by which concentration for doubling the thrombin time is less than DUP 714 ([7]; humans): 2.5; factor by which the thrombin time is increased (OFA rats [11]; 0.5 hours): 7.7; factor by which the thrombin time is increased (OFA rats [11]; 1 hour): 7.1; factor by which the thrombin time is increased (OFA rats [11]; 2 hours): 5.6
3 | 1820 | 225 | -4 | +1% | 82 | 2 | 0.46 | greater selectivity | 91 | 47 | 445 | CC(=O)N[C@H](Cc1ccccc1)C(=O)N(CC(=O)N[C@@H](CCCN=C(N)N)B(O)O)C1CCCC1.CC(=O)O [Ex. 28, 1-(R)-{[Ac-(R)Phe-(N-cyclopentyl)Gly]amino}-4-guanidinobutylboronic acid acetate] | 11 | 2 | – | – | – | – | – | 0.19 | potency on human thrombin compared with DUP 714 (human thrombin; with respect to human fibrinogen): more potent inhibitors of human thrombin than the reference compound
